The target of one test is T1, human PPARγ (Homo sapiens, UniProt P37231).
T1 construct: expressed in transfected cells
T1 sequence (P37231 1-477 isoform P37231-2): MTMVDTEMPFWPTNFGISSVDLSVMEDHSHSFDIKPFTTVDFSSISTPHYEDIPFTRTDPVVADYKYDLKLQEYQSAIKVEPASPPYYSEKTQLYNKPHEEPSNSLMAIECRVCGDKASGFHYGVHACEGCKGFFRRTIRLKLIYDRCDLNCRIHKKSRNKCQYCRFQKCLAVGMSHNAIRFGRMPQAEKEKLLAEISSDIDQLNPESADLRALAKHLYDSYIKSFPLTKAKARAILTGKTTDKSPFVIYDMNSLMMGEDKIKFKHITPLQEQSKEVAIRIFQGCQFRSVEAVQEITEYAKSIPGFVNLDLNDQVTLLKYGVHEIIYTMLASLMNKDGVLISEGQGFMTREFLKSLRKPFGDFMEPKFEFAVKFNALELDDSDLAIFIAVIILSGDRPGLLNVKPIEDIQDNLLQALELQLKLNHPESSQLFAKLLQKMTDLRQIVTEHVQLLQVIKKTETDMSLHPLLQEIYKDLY
T1 sequence (P19793 1-462 partner): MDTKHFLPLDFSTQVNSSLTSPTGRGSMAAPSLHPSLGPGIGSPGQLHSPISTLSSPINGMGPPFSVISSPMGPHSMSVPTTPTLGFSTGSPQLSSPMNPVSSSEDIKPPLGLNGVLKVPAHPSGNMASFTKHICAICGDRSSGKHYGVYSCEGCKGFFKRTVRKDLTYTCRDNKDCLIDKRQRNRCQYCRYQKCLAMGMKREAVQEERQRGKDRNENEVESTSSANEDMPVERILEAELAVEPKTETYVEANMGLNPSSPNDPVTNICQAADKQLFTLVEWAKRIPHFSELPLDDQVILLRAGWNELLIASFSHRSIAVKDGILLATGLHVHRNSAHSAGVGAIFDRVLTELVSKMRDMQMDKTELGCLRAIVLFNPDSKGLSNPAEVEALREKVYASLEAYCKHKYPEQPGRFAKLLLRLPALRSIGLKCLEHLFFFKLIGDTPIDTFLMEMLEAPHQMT
Briefly: PPARγ agonistic activity: luciferase reporter assay in PPARγ:RXRα:4ERPP/CHO-K1 cells. To be noted: CHO-K1, test compound 10^−6 M; luciferase activity of control compound X (1 μM) = 100%, non-administration group = 0%. The class given is cell-based. The text has this:
A CHO-K1 cell cultured in a 150 cm^2 cell culture flask [manufactured by Corning Costar Corporation, USA] comprising Ham's F12 medium [manufactured by INVITROGEN, USA] supplemented with 10% fetal bovine serum [manufactured by INVITROGEN, USA] was taken off by treating with 0.5 g/L trypsin-0.2 g/L EDTA (ethylenediamine tetraacetate) [manufactured by Life Technologies, Inc., USA], and then the cell was washed with PBS (Phosphate-buffered saline) [manufactured by INVITROGEN, USA], centrifuged (1000 rpm, 5 minutes) and suspended in PBS. Subsequently, DNA was introduced into the cell under the conditions shown below using GENE PULSER [manufactured by Bio-Rad Laboratories, USA].
Namely, to a cuvette having a 0.4 cm gap were added 8×10^6 cells and 10 μg of plasmid pVgRXR2-hPPARγ obtained in the above-mentioned (4) and 10 μg of reporter plasmid pGL3-4ERPP-TK neo obtained in the above-mentioned (3), which was subjected to electroporation at the voltage of 0.25 kV under the capacitance of […] Subsequently, the cell was transferred into a F12 medium comprising 10% fetal bovine serum and cultured for 24 hours, and then the cell was taken off again and centrifuged. Then, the pellet was suspended in Ham's F12 medium comprising 10% fetal bovine serum supplemented with 500 μg/ml of Geneticin [manufactured by INVITROGEN, USA] and 250 μg/ml of Zeocin [manufactured by INVITROGEN, USA]. The obtained suspension was diluted to the density of 10^4 cells/ml and inoculated in a 96-well plate [manufactured by Corning Costar Corporation, USA], which was cultured in a CO2 gas incubator at 37° C., whereby obtaining a Geneticin- and Zeocin-resistant transformant.
Subsequently, after the transformed cell line thus obtained was cultured in a 24-well plate [manufactured by Corning Costar Corporation, USA], a cell line in which expression of the luciferase was induced, i.e., PPARγ:RXRα:4ERPP/CHO-K1 cell was selected by the addition of 10 μM pioglitazone hydrochloride.
PPARγ:RXRα:4ERPP/CHO-K1 cells obtained in the above-mentioned (5) were cultured in F12 medium [manufactured by INVITROGEN, USA] containing 10% fetal bovine serum [manufactured by MOREGATE, Australia], seeded in a 96 well half-area white plate [manufactured by Corning Coster Corporation, USA] at 5×10^3 cells/well, and cultured in a CO2 incubator at 37° C. overnight.
Then, the medium was removed from the 96 well half-area white plate, hamF12 medium containing 0.1% fatty acid-free bovine serum albumin (BSA) (45 μl) and a test compound (5 μl) were added, and the mixture was cultured in the CO2 incubator at 37° C. for 1 day. After removing the medium, Picagene 7.5 [manufactured by Dai Nippon Inki, Japan] (20 μl) diluted 2-fold with HBSS (HANKS' BALANCED SALT SOLUTION) [manufactured by BIO […], USA] was added, and the mixture was stirred. Using 1420 ARVO Multilabel Counter [manufactured by PerkinElmer, USA], luciferase activity was measured. The percentage (%) was calculated from the luciferase activity of the test compound when the luciferase activity of the control compound (compound X: 5-[3-(4-{[2-(2-furyl)-5-methyl-1,3-oxazol-4-yl]methoxy}-3-methoxyphenyl)propyl]-1,3-oxazolidine-2,4-dione) (1 μM) was taken as 100% and the luciferase activity of the test compound non-administration group was taken as 0%.
In general terms: In a reporter assay the amount or activity of a reporter protein is the signal.

In a further test the target is T2, human AT1 receptor (Homo sapiens, UniProt P30556).
T2 construct: expressed in transfected cells; membrane fraction
T2 sequence (P30556 1-359): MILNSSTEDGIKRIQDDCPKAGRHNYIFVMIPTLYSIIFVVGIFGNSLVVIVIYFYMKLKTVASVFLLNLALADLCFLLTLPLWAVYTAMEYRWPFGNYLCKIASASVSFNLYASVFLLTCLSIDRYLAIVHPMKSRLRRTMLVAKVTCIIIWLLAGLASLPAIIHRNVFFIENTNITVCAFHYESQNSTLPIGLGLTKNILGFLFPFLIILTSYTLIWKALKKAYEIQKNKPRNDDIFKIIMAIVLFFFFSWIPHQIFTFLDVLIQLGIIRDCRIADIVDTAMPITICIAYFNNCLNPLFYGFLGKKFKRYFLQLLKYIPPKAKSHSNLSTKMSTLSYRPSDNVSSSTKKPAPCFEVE
The test can be described thus: AT1 receptor antagonistic activity: [125I]-angiotensin II binding assay on human AT1 receptor-expressing CHO-K1 cellular membrane fraction. To be noted: 22.5 pM [125I]-angiotensin II, 1 hr room temperature. The method, then:
CHO-K1 cell (RIKEN, Japan) capable of stable expression of human AT1 receptor was cultured, recovered, suspended in homogenize buffer (10 mM NaHCO3 (pH 7.4), 5 mM EDTA, 1× Complete EDTA free) [manufactured by Roche, Switzerland], and homogenized. The homogenate was centrifuged at low-speed (900×g, 10 min, 4° C.), and the supernatant was recovered and ultracentrifuged (90,000×g, 1 hr, 4° C.). The supernatant was discarded, and the pellets were resuspended in suspension buffer (50 mM Tris (pH 7.4), 1 mM EDTA, 1× Complete EDTA free).
(9 μg) in the presence of AT1 membrane and test compound in 100 μl, (total reaction volume) of reaction buffer (50 mM Tris (pH 7.4), 10 mM MgCl2 supplemented or not supplemented with 0.3 mg/mL fatty acid-free bovine serum albumin [manufactured by Wako Pure Chemical Industries, Ltd., Japan]). The reaction mixture was incubated in 96 well polypropylene plate for 1 hr at room temperature, and the reaction was quenched by rapid filtration (96 well cell harvester) through a GF/C filter treated with wash buffer (50 mM Tris (pH 7.4)). Subsequently, the filter was washed 5 times with 0.3 mL of ice-cooled wash buffer. […] Total binding was measured in the presence of 1% DMSO and nonspecific binding was measured in the presence of […] Candesartan.

For the compound `CCCc1c(Cc2ccc(-c3ccccc3-c3noc(=O)[nH]3)cc2)c(=O)n([C@H]2CC[C@H](OCC(C)O)CC2)c2ccnn12` (single isomer, unassigned) [Example 440, 4-[trans-4-(2-hydroxypropoxy)cyclohexyl]-6-{[2′-(5-oxo-4,5-dihydro-1,2,4-oxadiazol-3-yl)biphenyl-4-yl]methyl}-7-propylpyrazolo[1,5-a]pyrimidin-5(4H)-one (optically active form, retention time: short)], the activation at 1 µM at human PPARγ turned out to be 16%.
The same measure, in the same setting: with `CCCc1c(Cc2ccc(-c3ccccc3-c3noc(=O)[nH]3)cc2)c(=O)n([C@H]2CC[C@@H](OCC(C)(C)O)CC2)c2ncnn12` [Example 158, 4-[cis-4-(2-hydroxy-2-methylpropoxy)cyclohexyl]-6-{[2′-(5-oxo-4,5-dihydro-1,2,4-oxadiazol-3-yl)biphenyl-4-yl]methyl}-7-propyl[1,2,4]triazolo[1,5-a]pyrimidin-5(4H)-one] the figure was 37%.
On the same count and under the same terms, with `CCCc1c(Cc2ccc(-c3ccccc3-c3noc(=O)[nH]3)cc2)c(=O)n([C@H]2CC[C@H](OCC(C)O)CC2)c2ccnn12` (relative stereo) [Example 419, 4-[trans-4-(2-hydroxypropoxy)cyclohexyl]-6-{[2′-(5-oxo-4,5-dihydro-1,2,4-oxadiazol-3-yl)biphenyl-4-yl]methyl}-7-propylpyrazolo[1,5-a]pyrimidin-5(4H)-one] the figure was 21%.
For the compound `CCCCc1c(Cc2ccc(-c3ccccc3-c3noc(=O)[nH]3)cc2)c(=O)n(C2CCOC(C)C2)c2ncnn12` (stereo not shown) [Example 161, 7-butyl-4-(2-methyltetrahydro-2H-pyran-4-yl)-6-{[2′-(5-oxo-4,5-dihydro-1,2,4-oxadiazol-3-yl)biphenyl-4-yl]methyl}[1,2,4]triazolo[1,5-a]pyrimidin-5(4H)-one], the half-maximal inhibitory concentration (IC50) (in general, the concentration that gives 50% inhibition) at human AT1 receptor came to 1.2 nM.
For the compound `CCCc1c(Cc2ccc(-c3ccccc3-c3noc(=O)[nH]3)cc2F)c(=O)n(C2CCOC2)c2nc(C)nn12` (stereo not shown) [Example 120, 6-{[3-fluoro-2′-(5-oxo-4,5-dihydro-1,2,4-oxadiazol-3-yl)biphenyl-4-yl]methyl}-2-methyl-7-propyl-4-(tetrahydrofuran-3-yl)[1,2,4]triazolo[1,5-a]pyrimidin-5(4H)-one], the activation at 1 µM on human PPARγ stood at 18%.
Same read-out and setting: with `CCCc1c(Cc2ccc(-c3ccccc3-c3noc(=O)[nH]3)cc2F)c(=O)n([C@H]2C[C@@H](OCC(C)(C)O)C2)c2nc(C)nn12` [Example 404, 6-{[3-fluoro-2′-(5-oxo-4,5-dihydro-1,2,4-oxadiazol-3-yl)biphenyl-4-yl]methyl}-4-[cis-3-(2-hydroxy-2-methylpropoxy)cyclobutyl]-2-methyl-7-propyl[1,2,4]triazolo[1,5-a]pyrimidin-5(4H)-one] the figure was 28%; with `CCCc1c(Cc2ccc(-c3ccccc3-c3noc(=O)[nH]3)cc2)c(=O)n([C@H]2CC[C@H](OCC(C)(C)O)CC2)c2ncnn12` [Example 381, 4-[trans-4-(2-hydroxy-2-methylpropoxy)cyclohexyl]-6-{[2′-(5-oxo-4,5-dihydro-1,2,4-oxadiazol-3-yl)biphenyl-4-yl]methyl}-7-propyl[1,2,4]triazolo[1,5-a]pyrimidin-5(4H)-one], 32%.
Consider `CCCc1c(Cc2ccc(-c3ccccc3-c3noc(=O)[nH]3)cc2)c(=O)n([C@H]2CC[C@H](OC(C)C(C)(C)O)CC2)c2ncnn12` (single isomer, unassigned) [Example 318, 4-[trans-4-(2-hydroxy-1,2-dimethylpropoxy)cyclohexyl]-6-{[2′-(5-oxo-4,5-dihydro-1,2,4-oxadiazol-3-yl)biphenyl-4-yl]methyl}-7-propyl[1,2,4]triazolo[1,5-a]pyrimidin-5(4H)-one (retention time: short)], for which, at human AT1 receptor, the half-inhibitory concentration (IC50) is 1.8 nM.
As for `CCCc1c(Cc2ccc(-c3ccccc3-c3noc(=O)[nH]3)cc2F)c(=O)n([C@H]2C[C@H](OCC(C)(C)O)C2)c2nc(C)nn12` [Example 403, 6-{[3-fluoro-2′-(5-oxo-4,5-dihydro-1,2,4-oxadiazol-3-yl)biphenyl-4-yl]methyl}-4-[trans-3-(2-hydroxy-2-methylpropoxy)cyclobutyl]-2-methyl-7-propyl[1,2,4]triazolo[1,5-a]pyrimidin-5(4H)-one], the activation at 1 µM at human PPARγ was determined as 17%.
Same read-out and setting: with `CCCc1c(Cc2ccc(-c3ccccc3-c3noc(=O)[nH]3)cc2)c(=O)n([C@H]2CC[C@H](OCC(C)(C)O)CC2)c2ccnn12` [Example 413, 4-[trans-4-(2-Hydroxy-2-methylpropoxy)cyclohexyl]-6-{[2′-(5-oxo-4,5-dihydro-1,2,4-oxadiazol-3-yl)biphenyl-4-yl]methyl}-7-propylpyrazolo[1,5-a]pyrimidin-5(4H)-one] the figure was 25%.

The values above are taken from patent publication US8283353B2, “Fused ring compound and use thereof” (Takeda Pharmaceutical Company Limited, priority 2009, dated 2012).
